# Laboratory results taken from patent US6664232B1, “HLA-A2 restraint tumor antigen peptide originating in SART-1” (Kyogo Itoh, priority 1998, dated 2003).
# No end group written: not given here.
# System: YK-EC (HLA-A2-restricted CTL cell line) with HLA-A0201-positive T2 cells
# Assay: IFN-γ production by YK-EC incubated with peptide-pulsed T2 cells (ELISA)
# Type: cell-based, human
# Details: 2×10^4 T2 cells pulsed with peptide at 10 μM over 2 hours, incubated with 1×10^5 YK-EC for 18 hours; IFN-γ in supernatant by ELISA; non peptide control 6.5
# Description: Specifically, 10^4 of VA-13 cells were placed in each well of 96-well microplate, and incubated in RPMI 1640 medium containing 10% FCS. VA-13 cells were doubly transfected with 30 μl mixture consisting of 100 ng of the recombinant plasmid for HLA-A0201 cDNA and 100 ng of 6DI by using Lipofectin reagent (GIBCO BRL). Transfectants were prepared in duplicate. After 5-hour-incubation, 200 μl of culture medium was added to the transfectants, and the incubation continued for 72 hours. The culture medium was removed and 2×10^4 YK-EC were added, which was followed by cultivation for 18 to 24 hours. The culture medium was recovered, and the amount of IFN-γ was measured by ELISA. Specifically, an anti-humnan IFN-γ mouse monoclonal antibody was allowed to adsorb on wells of 96-well microplate to provide a solid-phased antibody. After blocking non-specific bindings with bovine serum albumin, the solid-phased antibody was allowed to bind with IFN-γ in the test sample. Anti-human IFN-γ rabbit polyclonal antibody as a detection antibody was then allowed to bind, which was followed by binding with an anti-rabbit immunoglobulin goat antibody (Amersham) labeled with alkaline phosphatase. The plate was subjected to color development reaction with peroxdase color development kit T (Sumitomo Bakelite), and measurement of absorbance at 405 nm. The absorbance was compared with that obtained with standard IFN-γ to determine the amount of IFN-γ. In the control experiments, the following three groups of cells were treated in the same manner: cells without transfection (non-treated group); cells transfected with recombinant plasmid 6DI alone; and cells transfected with solely recombinant plasmid containing HLA-A201 cDNA. To 2×10^4 T2 cells (Immunogenetics, 21:235,1985), which cell is an HLA-A0201-positive T-B hybridoma cell line but lacks the ability to present endogenous peptides, were added each of six peptides prepared in Example 3 at 10 μM over 2 hours. After incubating with 1×10^5 YK-EC for 18 hours, the amount of IFN-γ in supernatant produced by YK-EC was measured by ELISA in the same manner as described in Example 2.
row,Sequence,Amount of INF-γ produced by YK-EC [pg/mL]
1,AQKTPYIVL [778-786],105.4
2,LLETTVQKV [650-658],118.1
3,LLLCQNKGL [642-650],109.1
4,LLLCQNKGLL [642-651],112.4
5,RVKAPNKSL [660-668],71.1
6,YVDETGRKL [712-720],86.1
